Test results from a compilation of properties of binary mixtures (doi:10.1039/c6ra15476j).

Assay: xn = mol fraction of the nth substance listed
Conditions: 100 kPa

CCCC[n+]1ccn(C)c1.F[P-](F)(F)(F)(F)F + CC(=O)c1ccccc1
x2 = 0
Conditions	viscosity [mPa·s]
293.15 K	293
303.15 K	162
323.15 K	62
333.15 K	42.3

CCOS(=O)(=O)[O-].CC[n+]1ccn(C)c1 + CC(=O)c1ccccc1
x2 = 0
Conditions	speed of sound [m/s]	viscosity [mPa·s]
293.15 K	1695	98
303.15 K	1670	60
323.15 K	1623	27.9

CC[n+]1ccn(C)c1.F[B-](F)(F)F + CC(=O)c1ccccc1
x2 = 0
Conditions	speed of sound [m/s]	viscosity [mPa·s]
303.15 K	1618	28.2
313.15 K	1595	20
323.15 K	1572	14.9
333.15 K	1550	11.5

CC(=O)c1ccccc1 + CCCC[n+]1ccn(C)c1.F[P-](F)(F)(F)(F)F
viscosity [mPa·s]
Conditions	293.15 K	303.15 K	313.15 K	323.15 K	333.15 K
x1 = 0.0504	176	89	62	41	27.6
x1 = 0.0913	129	68	45.8	–	–
x1 = 0.1983	88	48.5	35	26.5	18.6
x1 = 0.2999	81	–	32.3	23.2	–
x1 = 0.3908	73	40.9	28.3	–	14.2
x1 = 0.4973	60	32.4	–	15.2	10.2
x1 = 0.5999	–	22.9	–	11.6	9.3
x1 = 0.697	35.6	18.5	12.3	–	8.3
x1 = 0.7999	28.2	14.3	8	–	4.67
x1 = 0.9002	16.2	7.7	5.6	4.34	–
x1 = 0.95	8.4	4.64	3.57	–	1.62
x1 = 1	1.91	1.65	1.37	1.17	–

CC(=O)c1ccccc1 + CCOS(=O)(=O)[O-].CC[n+]1ccn(C)c1
Conditions	speed of sound, 293.15 K [m/s]	speed of sound, 303.15 K [m/s]	speed of sound, 313.15 K [m/s]	speed of sound, 323.15 K [m/s]	speed of sound, 333.15 K [m/s]	viscosity, 293.15 K [mPa·s]	viscosity, 303.15 K [mPa·s]	viscosity, 313.15 K [mPa·s]	viscosity, 323.15 K [mPa·s]	viscosity, 333.15 K [mPa·s]
x1 = 0.0505	1691	1663	1637	1611	–	68	44	29	20.6	–
x1 = 0.0997	1684	1656	1628	1601	–	56	35	23.9	17.1	–
x1 = 0.2	1669	–	1610	1581	1521	40	–	18	13.1	11.9
x1 = 0.3008	1652	1621	1591	–	1503	30.2	21.3	14.5	–	9.6
x1 = 0.4002	1634	–	1571	1540	1485	22.6	–	11.9	9.3	8.3
x1 = 0.5006	1615	1583	1550	1518	–	14.9	11.8	9.8	8	6.8
x1 = 0.5999	1596	1562	1529	–	1448	10.1	8.4	7.2	–	4.9
x1 = 0.6921	1577	1542	–	1473	1428	6.9	6.6	–	3.4	3.6
x1 = 0.7973	–	–	1481	1446	1404	–	–	4.6	2.19	1.86
x1 = 0.8999	1526	1489	–	–	1379	3.7	2.88	–	–	1.66
x1 = 0.9502	1511	–	–	1402	1365	3.04	–	–	1.68	1.46
x1 = 1	1497	–	–	–	1352	1.91	–	–	–	1.02

CC(=O)c1ccccc1 + CC[n+]1ccn(C)c1.F[B-](F)(F)F
Conditions	speed of sound, 293.15 K [m/s]	speed of sound, 303.15 K [m/s]	speed of sound, 313.15 K [m/s]	speed of sound, 323.15 K [m/s]	speed of sound, 333.15 K [m/s]	viscosity, 293.15 K [mPa·s]	viscosity, 303.15 K [mPa·s]	viscosity, 313.15 K [mPa·s]	viscosity, 323.15 K [mPa·s]	viscosity, 333.15 K [mPa·s]
x1 = 0.0416	1640	1608	1581	1555	–	32.1	21.2	15.4	11.6	–
x1 = 0.094	1638	–	1572	–	–	25.5	–	12.3	–	–
x1 = 0.195	1628	1591	1560	1530	1502	21.7	14.3	10.9	8.1	7.2
x1 = 0.2999	–	1581	1550	1519	1490	–	12.9	9.5	7.3	5.8
x1 = 0.4003	–	1571	1538	–	–	–	11	8.1	–	–
x1 = 0.4989	1598	–	1527	–	1462	12.3	–	6	–	3.49
x1 = 0.5979	1583	1546	1511	1477	1442	8.7	6.5	5.2	4.14	3.39
x1 = 0.7005	1564	1528	1491	1457	1422	6.8	4.97	3.84	3.1	2.58
x1 = 0.8007	1543	1507	1472	1437	1400	4.74	3.61	3.09	2.36	2
x1 = 0.8918	1522	1485	–	1413	–	3.2	2.56	–	1.76	–
x1 = 0.9498	1509	1471	–	1398	–	2.45	2.03	–	1.42	–
x1 = 1	1497	1460	1423	1387	–	1.91	1.65	1.37	1.17	–
